Where two headings read alike, the source gives them in different places. *1 amine or outer side, *2 acyl side, *3 side chain or, on linkers, in order; H or OH if unused. Where a SMILES comes first, the peptide text is derived from it. The star is where a group is joined. pNA = O=[N+]([O-])c1ccc(N*)cc1; AMC = Cc1cc(=O)oc2cc(N*)ccc12; Suc = O=C(CCC(=O)[*:2])[*:1]; βNA = c1ccc2cc(N*)ccc2c1; Cbz = O=C(OCc1ccccc1)*
Experiments:
[1] = target: DPPI (Homo sapiens, UniProt P53634); test: Substrate specificity of human DPPI: hydrolysis of synthetic peptide substrates; type: biochemical; parameters: Human DPPI is now established to constitute a 200,000 Da glycoprotein with 24,000 Da subunits; from tissue; host or cells: human cadaveric spleen; unit not given here
Sequence of DPPI (P53634 231-394 limits assumed): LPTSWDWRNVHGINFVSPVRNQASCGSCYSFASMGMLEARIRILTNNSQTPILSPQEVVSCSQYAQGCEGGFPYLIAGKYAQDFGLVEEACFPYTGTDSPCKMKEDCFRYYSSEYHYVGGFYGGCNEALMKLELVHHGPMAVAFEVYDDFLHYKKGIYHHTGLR
Sequence of DPPI (P53634 25-134 limits assumed): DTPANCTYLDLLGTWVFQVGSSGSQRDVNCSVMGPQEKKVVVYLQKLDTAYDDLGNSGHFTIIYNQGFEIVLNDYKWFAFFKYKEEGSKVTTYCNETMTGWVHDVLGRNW
Sequence of DPPI (P53634 395-463 limits assumed): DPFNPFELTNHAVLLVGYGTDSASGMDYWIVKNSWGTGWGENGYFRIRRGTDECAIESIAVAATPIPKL
From the text: The specificity of human DPPI was studied using a variety of synthetic peptide substrates. These substrates appear in Table 5.
Substrates with blocked amino-termini, with proline at the P1 position, arginine at the P2, or containing only single amino acids, were not hydrolyzed. […] The amino-terminal sequence of bovine α-casein, Arg--Pro, prohibits the processive cleavage of amino-terminal dipeptides from this protein and therefore should increase the ability to specifically detect endoproteolytic activity, if present.

[2] = target: T1, human dipeptidyl peptidase-I (Homo sapiens, UniProt P53634); test: Effect of protease inhibitors on DPPI activity (purified enzyme); type: biochemical; parameters: Human DPPI is now established to constitute a 200,000 Da glycoprotein with 24,000 Da subunits; from tissue; host or cells: human cadaveric spleen
Description: Note. Purified human dipeptidyl peptidaseI (0.4 μg) was preincubated
with each of the inhibitors at the stated concentration for 15 min at
37° C.. Each sample was diluted 3fold with assay buffer containing
substrate and incubated for an additional 20 min.
Target sequence in this assay (P53634 231-394 limits assumed): as the sequence (P53634 231-394 limits assumed) above
Target sequence in this assay (P53634 25-134 limits assumed): as the sequence (P53634 25-134 limits assumed) above
Target sequence in this assay (P53634 395-463 limits assumed): as the sequence (P53634 395-463 limits assumed) above

[3] = target: T1, human dipeptidyl peptidase-I
[4] = system: NK cells; test: Depletion of NK cells by dipeptide esters; type: cell-based
[5] = inhibitor 1 mM, preincubated 15 min at 37° C., read-out: Percentage control activity
[6] = inhibitor 1 mM, preincubated 15 min at 37° C.

hydrolysis of substrate peptide by human DPPI ([1]; substrate concentration 100 μM)	hydrolysis of substrate peptide by human DPPI ([1]; substrate concentration 500 μM)	Molecule	other results
1000	1750	COc1cc(NC(=O)C(Cc2ccc(O)cc2)NC(=O)C(N)CO)cc2ccccc12 (stereo not drawn) [Ser-Tyr-MNA]	–
120	380	NCC(=O)N[C@@H](Cc1ccccc1)C(=O)Nc1ccc([N+](=O)[O-])cc1 [Gly-Phe-pNA] (H-Gly-Phe-pNA)	–
0	0	CC(C)C[C@H](N)C(=O)Nc1ccc2ccccc2c1 [Leu-βNA]	–
0	0	C[C@H](NC(=O)CCC(=O)O)C(=O)N[C@@H](C)C(=O)N[C@@H](C)C(=O)Nc1ccc([N+](=O)[O-])cc1 [Suc-Ala-Ala-Ala-pNA]	–
3500	5750	COc1cc(NC(=O)C(Cc2ccccc2)NC(=O)CN)cc2ccccc12 (stereo not drawn) [Gly-Phe-MNA]	–
0	0	NCC(=O)Nc1ccc2ccccc2c1 [Gly-βNA]	–
0	0	Cc1cc(=O)oc2cc(NC(=O)[C@H](CCCN=C(N)N)NC(=O)[C@H](Cc3ccccc3)NC(=O)[C@@H]3CCCN3)ccc12 [Pro-Phe-Arg-AMC] (H-Pro-Phe-Arg-{AMC})	–
0	0	COc1cc(NC(=O)[C@@H]2CCCN2C(=O)CN)cc2ccccc12 [Gly-Pro-MNA]	–
0	0	C[C@H](NC(=O)CCC(=O)O)C(=O)N[C@@H](C)C(=O)N1CCC[C@H]1C(=O)N[C@@H](Cc1ccccc1)C(=O)Nc1ccc([N+](=O)[O-])cc1 [Suc-Ala-Ala-Pro-Phe-pNA] (Suc-AAPF-pNA)	–
0	0	O=C(Nc1ccc2ccccc2c1)[C@@H]1CCCN1 [Pro-βNA]	–
0	0	N[C@@H](Cc1ccccc1)C(=O)Nc1ccc2ccccc2c1 [Phe-βNA]	–
1750	2000	N[C@@H](CO)C(=O)N[C@@H](Cc1ccc(O)cc1)C(=O)Nc1ccc2ccccc2c1 [Ser-Tyr-βNA] (H-Ser-Tyr-βNA)	–
2380	4380	NCC(=O)N[C@@H](Cc1ccccc1)C(=O)Nc1ccc2ccccc2c1 [Gly-Phe-βNA] (H-Gly-Phe-βNA)	–
0	0	NCC(=O)N1CCC[C@H]1C(=O)Nc1ccc2ccccc2c1 [Gly-Pro-βNA] (H-Gly-Pro-βNA)	–

More lines, now with the values behind:

Molecule	hydrolysis of substrate peptide by human DPPI ([1]; substrate concentration 100 μM)	hydrolysis of substrate peptide by human DPPI ([1]; substrate concentration 500 μM)	other results
c1cnc2c(c1)ccc1cccnc12 [1,10-Phenanthroline]	–	–	remaining activity at 1000 µM [2, 5]: 98%
NC(N)=NCCC[C@H](N)C(=O)Nc1ccc2ccccc2c1 [Arg-βNA]	0	0	–
O=C(O)CI [Iodoacetic acid]	–	–	effect on DPPI activity (in words) ([2]; pH 5.5): potently inhibited; remaining activity at 1000 µM ([2]; read-out: Percentage control activity): 10%
C[C@H](N)C(=O)Nc1ccc2ccccc2c1 [Ala-βNA]	0	0	–
O=C(NC(Cc1ccccc1)C(=O)Nc1ccc2ccccc2c1)OCc1ccccc1 (centres unmarked) [CBZ-Phe-βNA]	0	0	–
Cc1ccc(S(=O)(=O)NC(CCCCN)C(=O)CCl)cc1 (centres unmarked) [TLCK, 1-chloro-3-tosylamido-7-amino-2-heptanone]	–	–	Percentage control activity [2, 6]: 5%; effect on DPPI activity (in words) ([2]; screening conditions pH 5.5): potently inhibited
C[C@H](NC(=O)[C@@H](N)CC(=O)O)C(=O)Nc1ccc2ccccc2c1 [Asp-Ala-βNA] (H-Asp-Ala-βNA)	250	1000	–
COc1cc(NC(=O)[C@H](CCCN=C(N)N)NC(=O)[C@H](CC(C)C)NC(=O)[C@@H](NC(=O)OCc2ccccc2)C(C)C)cc2ccccc12 [CBZ-Val-Leu-Arg-MNA]	0	0	–
Cystatin [listing 1 of 2 here]	–	–	Percentage control activity of purified human DPPI (% of control activity (at 50 µg/ml)) [3]: 32
CC(C)C[C@H](NC(=O)[C@@H](O)[C@H](N)Cc1ccccc1)C(=O)O [Bestatin]	–	–	remaining activity at 500 µg/mL ([2]; inhibitor 500 μg/ml, preincubated 15 min at 37° C., read-out: Percentage control activity): 103%; effect on DPPI activity (in words) ([2]; screening conditions pH 5.5): no effect
CC(C)C[C@H](NC(=O)[C@@H](N)CC(C)C)C(=O)OCc1ccccc1 [benzyl ester derivative of Leu--Leu--OMe]	–	–	more potent than Leu--Leu--OMe in mediating depletion of NK cells [4]: 5 fold
N=C(N)NCCC[C@H](NC(=O)[C@@H](N)CCCNC(=N)N)C(=O)Nc1ccc2ccccc2c1 [Arg-Arg-βNA] (H-Arg-Arg-βNA)	0	0	–
Cc1cc(=O)oc2cc(NC(=O)C(CCCCN)NC(=O)OCc3ccccc3)ccc12 (centres unmarked) [CBZ-Lys-AMC]	0	0	–
Cc1cc(=O)oc2cc(NC(=O)[C@H](Cc3ccccc3)NC(=O)CN)ccc12 [Gly-Phe-AMC] (H-Gly-Phe-{AMC})	3500	6120	–
CC(N)C(=O)NC(C)C(=O)NC(C(=O)NC(C)C(=O)Nc1ccc([N+](=O)[O-])cc1)C(C)C (stereo not drawn) [Ala-Ala-Val-Ala-pNA] (H-AAVA-pNA; configuration not given here)	120	120	–
COc1cc(NC(=O)C(CCCN=C(N)N)NC(=O)CN)cc2ccccc12 (stereo not drawn) [Gly-Arg-MNA]	2500	4750	–
NC(N)=NCCC[C@H](NC(=O)OCc1ccccc1)C(=O)N[C@@H](CCCN=C(N)N)C(=O)Nc1ccc2ccccc2c1 [CBZ-Arg-Arg-βNA] (Cbz-Arg-Arg-βNA)	0	0	–
CCCC[C@H](NC(=O)[C@@H](N)CCCC)C(=O)OC [norleucyl-norleucine methyl ester]	–	–	more active than Leu--Leu--OMe [4]: 2 fold
Cystatin [listing 2 of 2 here]	–	–	Percentage control activity ([2]; inhibitor 50 μg/ml, preincubated 15 min at 37° C.): 32%; effect on DPPI activity (in words) ([2]; screening conditions pH 5.5): potently inhibited
COC([CH2][Hg+])CNC(=O)c1ccccc1OCC(=O)O.[OH-] (centres unmarked) [Mersalyl acid]	–	–	Percentage control activity [2, 6]: 3%; effect on DPPI activity (in words) ([2]; screening conditions pH 5.5): potently inhibited
c1ccc(SSc2ccccn2)nc1 [2,2'-Dithiodipyridine]	–	–	remaining activity at 400 µM ([2]; inhibitor 400 μM, preincubated 15 min at 37° C., read-out: Percentage control activity): 9%; effect on DPPI activity (in words) ([2]; screening conditions pH 5.5): inhibited
N=C(N)NCCCC(NC(=O)OCc1ccccc1)C(=O)Nc1ccc2ccccc2c1 (centres unmarked) [CBZ-Arg-βNA]	0	0	–
C[C@H](N)C(=O)N[C@@H](C)C(=O)Nc1ccc([N+](=O)[O-])cc1 [Ala-Ala-pNA] (H-Ala-Ala-pNA)	380	1000	–
CCN1C(=O)C=CC1=O [N-Ethylmaleimide]	–	–	remaining activity at 1000 µM [2, 5]: 63%; effect on DPPI activity (in words) ([2]; screening conditions pH 5.5): inhibited
Cc1cc(=O)oc2cc(NC(=O)[C@H](CCCN=C(N)N)NC(=O)[C@@H]3CCCN3C(=O)CNC(=O)OCc3ccccc3)ccc12 [CBZ-Gly-Pro-Arg-AMC] (Cbz-Gly-Pro-Arg-{AMC})	0	0	–

From patent US5602102A, “Dipeptidyl peptidase-I inhibitors and uses thereof” (Board of Regents, The Univ. of TX System, priority 1992, dated 1997)
